{
  "source": "patent EP1206494B1",
  "about": "“COMPUTATIONAL DESIGN METHODS FOR MAKING MOLECULAR MIMETICS” (SYNT:EM S.A., priority 1999, dated 2001)",
  "key": {"HIV-1-LAI strain [1]": {"system": "HIV-1-LAI strain", "format": "cell-based", "settings": "dose independent, non-linear behavior", "protocol": "Mononucleated cells were isolated from peripheral blood of a healthy donor (and seronegative for HIV and hepatitis viruses) with a gradient of Ficoll-Hypaque. The PBMCs were activated by […] of phytohemaglutinine-P (PHA-P, Difco Laboratories, Detroit, USA) during three days, then cultured at 200,000 cells per well in a 96-well plate, in a culture medium A, complemented by 20 IU/ml of recombinant interleukin-2 (rHuIL-2, Roche Products, Mannheim, Germany). […]\nPBMCs were infected over 1 hour at 37°C with a 10 000 tissue culture infectious dose 50% (TCID50) of the lymphocytary tropism reference strain HIV-1-LAI. At the end of the incubation, cells were washed twice with medium A. The HIV-1 strain was exclusively amplified, in the Neurovirology Service, with Umbilical Blood Mononucleated Cells (UBMC) activated with PHA-P, and the TCID50 was calculated using the Kärber formula. […]\n(§1) The activities of these compounds were compared to the Q4120 reference antibody and to AZT. […] The anti-HIV activity of AZT was measured at the following concentrations: 10 µM, 1 µM, 100 nM, 10 nM and 1 nM. […]\n(§2) All experiments were performed in triplicate. […] The viral replication was measured by dosing the inverse transcriptase activation in the supernatant of the 7th day culture, using a dosing kit Retrosys(r), supplied by Innovagen (Lund, Sweden)."}, "HIV-1-LAI strain [2]": {"system": "HIV-1-LAI strain", "assay": "Antiviral activity assay on PBMCs infected by HIV isolates (reverse transcriptase in day 7 supernatant)", "format": "cell-based", "settings": "Human immunodeficiency virus 1, PBMC", "protocol": "Mononucleated cells were isolated from peripheral blood of a healthy donor (and seronegative for HIV and hepatitis viruses) with a gradient of Ficoll-Hypaque. The PBMCs were activated by […] of phytohemaglutinine-P (PHA-P, Difco Laboratories, Detroit, USA) during three days, then cultured at 200,000 cells per well in a 96-well plate, in a culture medium A, complemented by 20 IU/ml of recombinant interleukin-2 (rHuIL-2, Roche Products, Mannheim, Germany). Medium A consists of: RPMI cell culture (RPMI 1640, Roche Products), 10% Fetal Calf Serum (FCS, Roche Products complement inactivated by heating at 56°C for 45mn, 2mM L-glutamine (Roche Products) and a solution of three antibiotics (penicillin, streptomycin and neomycin (PSN, LifeTechnologies, Grand Island, JSA). During culture, cells were maintained at +37°C, in a saturated humid atmosphere, under 5% CO2.\nPBMCs were infected over 1 hour at 37°C with a 10 000 tissue culture infectious dose 50% (TCID50) of the lymphocytary tropism reference strain HIV-1-LAI. At the end of the incubation, cells were washed twice with medium A. The HIV-1 strain was exclusively amplified, in the Neurovirology Service, with Umbilical Blood Mononucleated Cells (UBMC) activated with PHA-P, and the TCID50 was calculated using the Kärber formula.\nThe mimetic and the scrambled peptide were dissolved in ultrapure sterile water. Five concentrations were tested (50 µM, 10 µM, 5 µM, 1 µM and 0.5 µM). Antibodies ST40 and 9E8 (provided by the CNRS UMR 9921, Montpellier) were tested at the following concentrations: 100 µg/ml, 10 µg/ml, 1 µg/ml, 100 ng/ml and 10 ng/ml.\nas §1, §2"}, "human recombinant CD4": {"biological_target": "T1, human recombinant CD4 (Homo sapiens, UniProt P01730)", "T1 construct": "purchased RepliGen (USA)", "assay": "BIAcore surface plasmon resonance kinetic analysis: binding of soluble CD4 to immobilized mimetic", "protocol": "The human recombinant CD4 used for the kinetic analysis and the biological assays was obtained from RepliGen (USA).\nThe kinetic parameters, association rate constant (ka) and dissociation rate constant (kd), were determined by surface plasmon resonance (SPR) analysis using BIACORE 2000 (Biacore AB, Uppsala, Sweden). ka and kd were determined using BIAevaluation 3.0 software (BIAcore AB). The apparent equilibrium constant KD is the ratio kd/ka. All experiments were carried out at 25°C.\nThe free SH group of the lysine side chain extended by a 3-mercaptopropionic acid linker of the mimetic was used to chemically immobilize molecules on a B1 sensor chip (BIAcore AB) following a standard PDEA/EDC/NHS procedure from BIAcore.\nThe binding kinetic of CD4 to immobilized mimetic was determined by injecting CD4 (1-20 µg/ml, 16-330 nM) in HBS buffer (running buffer) at a flow rate of 30 µl/min."}},
  "note": "Where a SMILES comes first, the peptide text is derived from it. Bridges are numbered along the chain shown (N, C = ends). Mpa = O=C(O)CCS",
  "data": [
    {"smiles": "CC[C@H](C)[C@H](NC(C)=O)C(=O)N[C@@H](Cc1c[nH]c2ccccc12)C(=O)N[C@H](C(=O)N[C@H]1CCCCNC(=O)CNC(=O)[C@H](Cc2c[nH]c3ccccc23)NC(=O)[C@H](C(C)C)NC(=O)[C@@H]2CCCN2C(=O)[C@H](CCCNC(=N)N)NC(=O)[C@H](C)NC(=O)[C@H](CC(N)=O)NC(=O)[C@@H]2CCCN2C(=O)[C@H](C)NC(=O)[C@H](CCCNC(=N)N)NC(=O)[C@@H]2CCCN2C(=O)CNC(=O)[C@H](Cc2ccc(O)cc2)NC(=O)[C@H](Cc2ccccc2)NC(=O)[C@H](CS)NC(=O)[C@H](CCCNC(=N)N)NC(=O)[C@H](CC(N)=O)NC(=O)[C@H](Cc2ccc(O)cc2)NC(=O)[C@@H]2CCCN2C(=O)[C@H](C(C)C)NC(=O)[C@H](Cc2c[nH]cn2)NC(=O)[C@@H]2CCCN2C(=O)[C@H](C)NC1=O)C(C)C", "note": "[scrambled peptide] (Ac-IWVKAPHVPYNRCFYGPRAPNARPVWG; lactam 4-C)", "values": [
      {"measurement": "anti-retroviral activity (in words)", "setting": "HIV-1-LAI strain [1]", "result": "within the background noise"}
    ]},
    {"smiles": "Cc1cn([C@H]2C[C@H](N=[N+]=[N-])[C@@H](CO)O2)c(=O)[nH]c1=O", "note": "[AZT]", "values": [
      {"measurement": "inhibition at 0.001 µM", "setting": "HIV-1-LAI strain [2]", "result": "66 ± 5", "unit": "%"},
      {"measurement": "inhibition at 0.01 µM", "setting": "HIV-1-LAI strain [2]", "result": "74 ± 13", "unit": "%"},
      {"measurement": "inhibition at 0.1 µM", "setting": "HIV-1-LAI strain [2]", "result": 100, "unit": "%"}
    ]},
    {"smiles": "CC(=O)N[C@@H](C)C(=O)N[C@@H](CCCNC(=N)N)C(=O)N[C@@H](CCCNC(=N)N)C(=O)N1CCC[C@H]1C(=O)N[C@H]1CCCCNC(=O)[C@@H]2CCCN2C(=O)CNC(=O)[C@H](Cc2ccc(O)cc2)NC(=O)[C@H](C)NC(=O)[C@H](C(C)C)NC(=O)[C@H](Cc2c[nH]c3ccccc23)NC(=O)[C@@H]2CCCN2C(=O)CNC(=O)[C@H](Cc2c[nH]c3ccccc23)NC(=O)[C@H](C(C)C)NC(=O)[C@H](CC(N)=O)NC(=O)[C@@H]2CCCN2C(=O)[C@H](Cc2c[nH]cn2)NC(=O)[C@H](CC(N)=O)NC(=O)[C@H](CCCCNC(=O)CCS)NC(=O)[C@H](C(C)C)NC(=O)[C@H](Cc2ccc(O)cc2)NC(=O)[C@@H]2CCCN2C(=O)[C@H](C)NC(=O)[C@H](CCCNC(=N)N)NC(=O)[C@H](Cc2ccc(O)cc2)NC(=O)[C@H](Cc2ccccc2)NC1=O", "note": "[Mk3Tyr-long1SH] (Ac-ARRPKFYRAPYVK(Mpa)NHPNVWGPWVAYGP; lactam 5-C)", "values": [
      {"measurement": "kon", "setting": "human recombinant CD4; immobilized mimetic and soluble CD4, 25°C, read-out: ka", "result": 82600, "unit": "M⁻¹ s⁻¹"},
      {"measurement": "Kd", "setting": "human recombinant CD4; ratio kd/ka, read-out: calculated KD", "result": 3.2, "unit": "nM"}
    ]}
  ]
}
